The values that follow come from patent publication US11304919B2, “Utilization of cilastatin in inhibiting renal disorder” (NIIGATA UNIVERSITY, priority 2018, dated 2022).

The test system of series [1] is C57BL/6J mice. Briefly: Inhibition of contrast-induced renal injuries in murine contrast nephropathy model (Example 2). The format is in vivo, mouse. The conditions noted are these: 200 μL iomeprol + 400 mg/kg cilastatin. As to the method:
In order to confirm the ability of cilastatin to inhibit renal injuries, C57BL/6J mice were simultaneously administered with an iodinated contrast medium and cilastatin, and the results were analyzed.
Left kidneys were extracted from the C57BL/6J mice, and 14 days later, right kidney pedicles were ligated for 30 minutes. Thereafter, reperfusion was carried out. […]
a) Contrast medium+cilastatin-treated group: 200 μL of iomeprol (CM)+400 mg/kg cilastatin (CS) (100 LL) b) Contrast medium+normal saline-treated group: 200 μL of iomeprol (CM)+100 μL of NS For each of the groups, after 48 hours from the medication, blood and urine samples were collected, and serum Cr, MN and cystatin C levels, and urinary Cr, NAG and KIM-1 levels were measured. Further, right kidneys were extracted and histologically evaluated by immunostaining with KIM-1 and staining with PAS. […] Serum cystatin C and urinary KIM-1 measurements were contracted to Oriental Yeast Co., Ltd.
0.5±: Clear but weak granular staining present focally along the luminal surface of non-atrophic proximal tubules 1+: Clear but weak granular staining completely surrounding the luminal surface of non-atrophic proximal tubules 2+: Moderately intense granular staining completely surrounding the luminal surface of non-atrophic proximal tubules and extending into intercellular junctions 3+: Strong large granular staining completely surrounding the luminal surface of non-atrophic proximal tubules and extending into intercellular junctions […]
Individuals meeting these criteria were regarded as individuals with onset of contrast nephropathy.

Series [2] concerns the target megalin (Rattus norvegicus, UniProt P98158). Conditions: 1 mg cilastatin injected in advance; 1.5 μg protein of interest; FIG. 27.
Procedure: According to the method of Orlando, et al, megalin protein purified from Sprague-Dawley (SD) rat kidneys was immobilized on quartz crystals. To be specific, with the use of an immobilization kit for AFFNIX® (Initium Inc.) and according to the recommended protocol for the kit, a megalin protein solution was prepared in Buffer A as provided with the kit to a concentration of 62.5 μg/mL, and placed and immobilized onto quartz crystals mounted in a holder.
More specifically, the protein of interest was injected in aliquots of the megalin protein-immobilized quartz crystals in 200 μL of buffer to measure frequency. The same measurement was done on quartz crystals, as a control, on which the same amount of bovine serum albumin (BAS) was solid phased instead of megalin. Thus, the specific binding ability of the protein of interest to megalin was analyzed.
Further, aliquots of megalin protein-immobilized quartz crystals in a buffer in which 1 mg of cilastatin was injected in advance were mounted in the measurement instrument, and the frequency was confirmed to be stable, and then, 1.5 μg of the protein of interest was injected to measure frequency over time, whereby the antagonizing activity of cilastatin against the binding of the protein of interest to megalin was analyzed. The same experiment was performed for the control group.
For series [3], the system named is protein (carrier) used in Reference Example 5. Conditions: 0-50 mM cilastatin; 10 mM iomeprol, ioversol, iodixanol, iopromide or iohexol solid-phased beads; FIGS. 22-26.
Procedure: Different solutions, as mentioned below, were prepared using 100 mM KCL buffer (as mentioned in Reference Example 4) and the protein used in Reference Example 5, and were reacted at 4° C. for 2 hours.
a) Solution containing 25 ng/μL of the protein of interest and 0 mM of the contrast medium
b) Solution containing 25 ng/μL of the protein of interest and 10 mM of the contrast medium
c) Solution containing 25 ng/μL of the protein of interest and 25 mM of the contrast medium
d) Solution containing 25 ng/μL of the protein of interest and 50 mM of the contrast medium
Next, the above-prepared solutions were each added to 5 mg of the 0 mM or 10 mM contrast solid-phased beads dispersed and washed by the procedure described in Reference Example 4, and were reacted at 4° C. for 4 hours. The solution/beads combinations adopted were as mentioned below.
Then, the different mixtures were treated by following the procedure described in Reference Example 4, and heat-eluted samples were prepared from the different reaction solutions.
Different solutions, as mentioned below, were prepared using 100 mM KCL buffer (as mentioned in Reference Example 4), and were reacted at 4° C. for 2 hours.
a′) Solution containing 25 ng/μL of the protein of interest and 0 mM of cilastatin
b′) Solution containing 25 ng/μL of the protein of interest and 10 mM of cilastatin […]
Series [4] concerns the target T1, megalin (Mus musculus, UniProt A2ARV4).
Source text: In this example, it was verified, using an electron probe microanalyzer (EPMA), whether megalin-dependent internalization of contrast media (iodine) into murine renal proximal tubular epithelial cells was inhibited by treatment with cilastatin.
C57BL/6J mice were divided into the following groups and administered with the following agents from the tail vein.
Therefore, by calculating a ratio of X-ray intensity between iodine (I) and nitrogen (N) (I/N) in a specified area of thin-film biological samples, iodine (I) levels in different samples can be relatively quantified and compared. X-ray count ratio=(X-ray count of iodine/unit area)/(X-ray count of nitrogen/(unit area))
Based on this principle, iodine levels in a specified area were relatively quantified and compared.
Further, 1980 μm^2 regions containing cortex portions were analyzed, and seven 500 μm^2 areas were chosen from the cortex portions so as not to overlap with each other. An average was calculated of the I/N X-ray ratios in the seven areas, and regarded as an I/N X-ray ratio for one individual. Those I/N X-ray ratios for six individuals in each of the a) and b) groups were quantified and compared.
Series [5] deals with megalin. The conditions noted are these: mouse, in vivo.
Source text: (§1) EPMA is an electron microprobe (EMP) instrument that analyzes the constituent elements of a substance of interest by irradiating electron beams onto the substance and measuring the wavelengths and intensities of characteristic X-rays unique to the different elements, which are generated by the electron beams. […] The behaviors of contrast media per se can be verified by analyzing iodine content distribution.
(§2) In order to use right kidneys for analysis, 3 mm-thick sections containing a kidney pedicle portion were prepared, embedded in OCT compound, freeze-fixed with liquid nitrogen, and stored at −80° C.
(§3) Next, the stored sections were sliced at a thickness of 4 μm using a cryostat (CM1850, Leica Biosystems), and the obtained slices were attached onto carbon-coated grids and freeze-dried overnight.
(§4) 378 μm^2 cortical areas in the prepared tissue slices were analyzed by EPMA (EPMA 1610, Shimadzu Corporation, Kyoto, Japan) to map iodine present in the structures of the contrast media.
In series [6] the target is T1, megalin. Conditions: in vivo.
Source text: as §1, §2, §3, §4

T1 sequence (A2ARV4 26-4660): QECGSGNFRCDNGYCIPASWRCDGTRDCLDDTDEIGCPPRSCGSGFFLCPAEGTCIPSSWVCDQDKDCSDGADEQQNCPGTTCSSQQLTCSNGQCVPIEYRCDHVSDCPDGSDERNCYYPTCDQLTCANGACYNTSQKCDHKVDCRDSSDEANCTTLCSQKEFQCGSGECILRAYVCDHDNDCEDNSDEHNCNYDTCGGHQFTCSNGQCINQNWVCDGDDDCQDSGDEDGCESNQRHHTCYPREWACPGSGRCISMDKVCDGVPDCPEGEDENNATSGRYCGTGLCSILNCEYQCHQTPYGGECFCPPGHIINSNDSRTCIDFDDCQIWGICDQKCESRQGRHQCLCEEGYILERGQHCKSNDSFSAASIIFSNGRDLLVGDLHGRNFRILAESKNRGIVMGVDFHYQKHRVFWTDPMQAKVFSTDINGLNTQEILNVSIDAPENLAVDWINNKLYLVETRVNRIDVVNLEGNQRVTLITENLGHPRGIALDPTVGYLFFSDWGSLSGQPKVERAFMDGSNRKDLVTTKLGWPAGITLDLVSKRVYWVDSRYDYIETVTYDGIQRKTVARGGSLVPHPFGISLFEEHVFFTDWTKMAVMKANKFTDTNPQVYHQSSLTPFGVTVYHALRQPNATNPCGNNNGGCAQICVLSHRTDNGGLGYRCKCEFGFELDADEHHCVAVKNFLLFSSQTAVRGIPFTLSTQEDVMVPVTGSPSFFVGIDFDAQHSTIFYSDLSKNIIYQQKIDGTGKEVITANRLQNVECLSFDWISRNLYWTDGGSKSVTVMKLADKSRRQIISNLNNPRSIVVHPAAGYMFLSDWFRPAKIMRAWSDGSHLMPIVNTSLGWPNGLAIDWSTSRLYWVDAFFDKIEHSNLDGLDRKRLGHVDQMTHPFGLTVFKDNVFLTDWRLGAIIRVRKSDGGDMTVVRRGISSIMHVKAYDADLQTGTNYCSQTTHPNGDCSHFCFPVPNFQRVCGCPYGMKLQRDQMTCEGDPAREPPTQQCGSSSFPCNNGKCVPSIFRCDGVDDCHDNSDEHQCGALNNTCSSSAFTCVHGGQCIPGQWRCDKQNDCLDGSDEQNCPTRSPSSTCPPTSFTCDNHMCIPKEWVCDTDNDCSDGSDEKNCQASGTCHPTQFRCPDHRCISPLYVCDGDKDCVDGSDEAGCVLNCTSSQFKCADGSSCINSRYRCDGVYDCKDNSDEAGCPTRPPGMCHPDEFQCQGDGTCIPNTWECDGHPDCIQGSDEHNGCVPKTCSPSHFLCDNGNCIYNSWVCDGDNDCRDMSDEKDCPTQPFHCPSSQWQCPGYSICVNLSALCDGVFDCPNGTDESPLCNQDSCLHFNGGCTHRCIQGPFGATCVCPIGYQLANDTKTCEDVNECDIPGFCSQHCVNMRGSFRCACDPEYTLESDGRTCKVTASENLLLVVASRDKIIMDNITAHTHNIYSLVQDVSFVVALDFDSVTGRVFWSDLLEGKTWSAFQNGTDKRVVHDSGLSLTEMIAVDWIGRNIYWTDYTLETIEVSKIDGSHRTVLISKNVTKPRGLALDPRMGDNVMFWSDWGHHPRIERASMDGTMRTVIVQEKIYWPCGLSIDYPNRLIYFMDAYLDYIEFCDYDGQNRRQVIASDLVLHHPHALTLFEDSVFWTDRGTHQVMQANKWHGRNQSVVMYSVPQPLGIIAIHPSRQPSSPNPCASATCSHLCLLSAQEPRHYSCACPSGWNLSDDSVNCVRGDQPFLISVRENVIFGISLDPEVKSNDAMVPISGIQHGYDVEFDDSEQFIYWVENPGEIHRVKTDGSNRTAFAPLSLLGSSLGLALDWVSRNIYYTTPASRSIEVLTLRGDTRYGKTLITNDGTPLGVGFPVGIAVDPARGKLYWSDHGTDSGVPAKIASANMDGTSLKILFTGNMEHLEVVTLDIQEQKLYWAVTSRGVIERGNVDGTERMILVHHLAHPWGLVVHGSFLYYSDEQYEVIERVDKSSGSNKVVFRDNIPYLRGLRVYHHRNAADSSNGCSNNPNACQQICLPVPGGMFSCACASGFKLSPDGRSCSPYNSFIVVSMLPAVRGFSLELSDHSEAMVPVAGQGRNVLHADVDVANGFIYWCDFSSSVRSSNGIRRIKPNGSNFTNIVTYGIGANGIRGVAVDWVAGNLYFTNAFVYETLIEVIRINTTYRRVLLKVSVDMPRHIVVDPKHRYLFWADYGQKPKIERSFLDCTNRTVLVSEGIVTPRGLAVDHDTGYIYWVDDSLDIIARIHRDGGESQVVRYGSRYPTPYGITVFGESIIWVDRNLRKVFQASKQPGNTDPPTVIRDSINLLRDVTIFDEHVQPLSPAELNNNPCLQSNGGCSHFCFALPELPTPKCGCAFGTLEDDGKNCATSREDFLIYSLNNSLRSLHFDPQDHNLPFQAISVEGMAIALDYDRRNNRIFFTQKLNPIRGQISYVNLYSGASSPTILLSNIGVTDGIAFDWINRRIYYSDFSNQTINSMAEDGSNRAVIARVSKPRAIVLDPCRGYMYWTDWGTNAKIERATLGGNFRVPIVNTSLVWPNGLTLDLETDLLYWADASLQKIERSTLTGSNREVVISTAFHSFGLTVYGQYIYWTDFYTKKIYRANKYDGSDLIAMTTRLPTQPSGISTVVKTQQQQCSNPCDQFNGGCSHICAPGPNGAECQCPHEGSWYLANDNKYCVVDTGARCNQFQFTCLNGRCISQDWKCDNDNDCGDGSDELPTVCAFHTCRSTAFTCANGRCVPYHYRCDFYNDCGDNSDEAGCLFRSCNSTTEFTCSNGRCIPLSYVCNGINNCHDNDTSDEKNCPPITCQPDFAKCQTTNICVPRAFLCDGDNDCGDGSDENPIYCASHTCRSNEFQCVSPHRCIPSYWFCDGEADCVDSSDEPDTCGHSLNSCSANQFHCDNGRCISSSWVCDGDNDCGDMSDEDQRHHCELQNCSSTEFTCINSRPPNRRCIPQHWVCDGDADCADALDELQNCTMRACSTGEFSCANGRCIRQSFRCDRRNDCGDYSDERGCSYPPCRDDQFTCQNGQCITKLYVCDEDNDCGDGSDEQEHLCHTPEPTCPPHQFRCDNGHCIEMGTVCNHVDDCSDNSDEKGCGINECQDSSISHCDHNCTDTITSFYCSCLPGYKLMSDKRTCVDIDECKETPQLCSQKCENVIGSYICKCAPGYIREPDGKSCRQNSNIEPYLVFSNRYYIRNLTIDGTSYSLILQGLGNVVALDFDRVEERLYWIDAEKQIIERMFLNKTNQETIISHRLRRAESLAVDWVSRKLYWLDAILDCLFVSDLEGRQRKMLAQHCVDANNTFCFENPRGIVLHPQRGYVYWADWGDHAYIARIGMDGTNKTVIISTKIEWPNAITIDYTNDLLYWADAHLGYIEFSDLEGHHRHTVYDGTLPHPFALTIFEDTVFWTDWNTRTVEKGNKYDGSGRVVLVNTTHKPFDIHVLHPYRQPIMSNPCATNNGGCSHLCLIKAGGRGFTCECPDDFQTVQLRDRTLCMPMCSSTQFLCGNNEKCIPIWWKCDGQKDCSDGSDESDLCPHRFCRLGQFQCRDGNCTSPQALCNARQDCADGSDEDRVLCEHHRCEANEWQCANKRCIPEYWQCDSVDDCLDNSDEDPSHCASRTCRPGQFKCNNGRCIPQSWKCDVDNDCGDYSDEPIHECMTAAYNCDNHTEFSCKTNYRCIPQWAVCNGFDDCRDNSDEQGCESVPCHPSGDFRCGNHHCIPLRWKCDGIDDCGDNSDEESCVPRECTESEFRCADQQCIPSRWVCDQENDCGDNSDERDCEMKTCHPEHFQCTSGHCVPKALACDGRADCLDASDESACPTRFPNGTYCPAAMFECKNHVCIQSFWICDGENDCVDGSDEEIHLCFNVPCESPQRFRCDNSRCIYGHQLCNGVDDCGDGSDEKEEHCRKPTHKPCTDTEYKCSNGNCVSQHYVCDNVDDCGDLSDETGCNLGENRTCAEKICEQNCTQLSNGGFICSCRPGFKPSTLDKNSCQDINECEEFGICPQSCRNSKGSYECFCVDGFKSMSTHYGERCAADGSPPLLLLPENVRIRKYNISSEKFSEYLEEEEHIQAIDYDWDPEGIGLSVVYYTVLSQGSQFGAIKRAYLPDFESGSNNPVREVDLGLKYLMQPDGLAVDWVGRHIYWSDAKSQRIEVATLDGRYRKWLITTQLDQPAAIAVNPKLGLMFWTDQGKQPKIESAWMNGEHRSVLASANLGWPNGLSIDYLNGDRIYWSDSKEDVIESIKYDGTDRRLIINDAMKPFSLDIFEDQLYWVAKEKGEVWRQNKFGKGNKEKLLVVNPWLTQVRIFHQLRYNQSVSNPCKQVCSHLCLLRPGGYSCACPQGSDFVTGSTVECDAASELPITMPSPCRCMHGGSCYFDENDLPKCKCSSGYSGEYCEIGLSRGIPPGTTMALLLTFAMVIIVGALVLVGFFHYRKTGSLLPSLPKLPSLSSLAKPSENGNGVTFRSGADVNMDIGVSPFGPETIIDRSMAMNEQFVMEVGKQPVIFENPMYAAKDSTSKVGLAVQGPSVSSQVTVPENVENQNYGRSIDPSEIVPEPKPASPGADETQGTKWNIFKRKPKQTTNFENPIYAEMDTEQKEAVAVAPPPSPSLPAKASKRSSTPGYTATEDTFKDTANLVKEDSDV

In the case of `CC1(C)C[C@@H]1C(=O)N/C(=C\CCCCSC[C@H](N)C(=O)O)C(=O)O` [cilastatin, (Z)-7-[[(R)-2-amino-2-carboxyethyl]thio]-2-[[[(S)-2,2-dimethylcyclopropyl]carbonyl]amino]-2-heptenoic acid], the “increase in urinary KIM-1 levels versus contrast medium+normal saline group” value in series [1] (48 h, FIG. 16) is “significantly (t-test) reduced”. The “percentage of individuals with onset of contrast nephropathy” value in series [1] (48 h after medication) stood at 0%. The “expression of KIM-1 in kidney tissue (staining intensity scores) versus contrast medium+normal saline group” value in series [1] (outer cortices (S1 and S2 segments), FIG. 18) is given as “significantly (t-test) lower”. For the same compound, the “change in frequency after injection of the protein of interest onto megalin-immobilized quartz crystals (QCM)” value in series [2] is “reduced”. Besides, the “band corresponding to the protein of interest bound to contrast-bound beads, in the coexistence of cilastatin” value in series [3] is listed as “decreased”. Further, the “detection of iodine by EPMA in kidney tissue versus contrast medium+normal saline groups” value in series [4] (400 mg/kg cilastatin + 100 μL contrast medium, tail vein, FIG. 11 (iomeprol)) was “decrease in the detection of iodine”. For the same compound, the “I/N X-ray ratio in kidney cortex versus contrast medium+normal saline groups” value in series [4] (400 mg/kg cilastatin + 100 μL iomeprol, iohexol, ioversol or iodixanol, six individuals per group, FIGS. 12 to 15) is “significantly (t-test) lower”.
Turning to `CC(=O)N(CC(O)CN(C(C)=O)c1c(I)c(C(=O)NCC(O)CO)c(I)c(C(=O)NCC(O)CO)c1I)c1c(I)c(C(=O)NCC(O)CO)c(I)c(C(=O)NCC(O)CO)c1I` (stereo not shown) [iodixanol], the “iodine contents detected in kidney slices by EPMA, NDRG1-Cre mice versus control mice” value in series [5] is given as “lower”. For the same compound, in series [6], the “iodine detected in kidney slices by EPMA, control mice” value (“iodine detected in kidney slices” for short) is “High concentrations of iodine were detected”.
On to `CC(=O)N(CC(O)CO)c1c(I)c(C(=O)NCC(O)CO)c(I)c(C(=O)NCC(O)CO)c1I` (stereo not shown) [iohexol], for which the “iodine contents detected in kidney slices by EPMA, NDRG1-Cre mice versus control mice” value in series [5] was “lower”. Also, in series [6], the “iodine detected in kidney slices” value was “High concentrations of iodine were detected”.
Turning to `C[C@H](O)C(=O)Nc1c(I)c(C(=O)NC(CO)CO)c(I)c(C(=O)NC(CO)CO)c1I` [iopamidol], the “iodine contents detected in kidney slices by EPMA, NDRG1-Cre mice versus control mice” value in series [5] was “lower”. Besides, in series [6], the “iodine detected in kidney slices” value is given as “High concentrations of iodine were detected”.
With `COCC(=O)Nc1c(I)c(C(=O)NCC(O)CO)c(I)c(C(=O)N(C)CC(O)CO)c1I` (stereo not shown) [iopromide], the “iodine contents detected in kidney slices by EPMA, NDRG1-Cre mice versus control mice” value in series [5] is listed as “lower”. In addition, the “iodine detected in kidney slices” value in series [6] is recorded as “High concentrations of iodine were detected”.
Regarding `O=C(NCC(O)CO)c1c(I)c(C(=O)NCC(O)CO)c(I)c(N(CCO)C(=O)CO)c1I` (stereo not shown) [ioversol], the “iodine contents detected in kidney slices by EPMA, NDRG1-Cre mice versus control mice” value in series [5] is listed as “lower”.
